Assay [1] addresses T1, Aβ1-40 (Homo sapiens, UniProt P05067).
T1 construct: biotinylated Aβ1-40, at final concentration 400 nM; purchased Bachem AG (Bubendorf, Switzerland) or Schafer-N; host or cells: synthetic peptide
The experiment in a line: Competitive ELISA, binding to biotinylated Aβ1-40. The settings on record: Table 1, title prints Aβ1-42, text and method Aβ1-40, IC50 interpreted as KD. As for the experimental part: NL1 and NL1-derived peptide binding to Aβ was measured by competitive ELISA using the shorter Aβ1-40 peptide with a slower polymerization constant, optimized for this binding assay. Recombinant NL1 (3.125 nM) was immobilized on a poly-sorb 96-well plate (NUNC, Roskilde, Denmark) using sodium bicarbonate buffer (pH 9.6), and left overnight at 4 °C, followed by washing with PBST buffer (PBS supplemented with 0.1% [vol/vol] Tween-20, pH 7.4). In separate tubes, biotinylated Aβ1-40, at final concentration 400 nM, was premixed with serially diluted NL1 or NL1-derived peptides for 30 min. A reversed version of Aβ (Aβ40-1) was used as the respective negative control (Supplementary Fig. 1). After preincubation, the samples were centrifuged at 20,000 × g for 10 min at 4 °C and 100 μl of the mixtures were transferred in triplicates onto the precoated ELISA plate. Plates were incubated at room temperature for 4 h, followed by washing and incubation with streptavidin-HRP conjugate (1:1000, 1 h; Dako, Glostrup, Denmark). The signal was developed with TMB ONE (KEM-EN-TEC, Denmark), and the reaction was terminated with 0.2 M H2SO4. Absorbance was measured at 450 nm on a Wallac VICTOR2 1420 Multilabel Counter (PerkinElmer, Hvidovre, Denmark). KD values were derived by sigmoidal dose–response (variable slope) fit of NL1 and neurolide dose–response curves after log transformation according to GraphPad Prism (version 6, GraphPad, San Diego, CA, USA). Obtained inhibitory concentration IC50 value was interpreted as KD value.
On the technique in general: In an ELISA, binding on a coated surface is turned into a signal by an enzyme label.

Assay [2] deals with T2, brain-derived NEP (Mus musculus, UniProt Q61391).
T2 construct: Clear supernatants were used as membrane-extracted fractions; from tissue; host or cells: adult mouse brain without cerebellum, Triton X-100-extracted membrane fraction
T2 sequence (Q61391 1-750): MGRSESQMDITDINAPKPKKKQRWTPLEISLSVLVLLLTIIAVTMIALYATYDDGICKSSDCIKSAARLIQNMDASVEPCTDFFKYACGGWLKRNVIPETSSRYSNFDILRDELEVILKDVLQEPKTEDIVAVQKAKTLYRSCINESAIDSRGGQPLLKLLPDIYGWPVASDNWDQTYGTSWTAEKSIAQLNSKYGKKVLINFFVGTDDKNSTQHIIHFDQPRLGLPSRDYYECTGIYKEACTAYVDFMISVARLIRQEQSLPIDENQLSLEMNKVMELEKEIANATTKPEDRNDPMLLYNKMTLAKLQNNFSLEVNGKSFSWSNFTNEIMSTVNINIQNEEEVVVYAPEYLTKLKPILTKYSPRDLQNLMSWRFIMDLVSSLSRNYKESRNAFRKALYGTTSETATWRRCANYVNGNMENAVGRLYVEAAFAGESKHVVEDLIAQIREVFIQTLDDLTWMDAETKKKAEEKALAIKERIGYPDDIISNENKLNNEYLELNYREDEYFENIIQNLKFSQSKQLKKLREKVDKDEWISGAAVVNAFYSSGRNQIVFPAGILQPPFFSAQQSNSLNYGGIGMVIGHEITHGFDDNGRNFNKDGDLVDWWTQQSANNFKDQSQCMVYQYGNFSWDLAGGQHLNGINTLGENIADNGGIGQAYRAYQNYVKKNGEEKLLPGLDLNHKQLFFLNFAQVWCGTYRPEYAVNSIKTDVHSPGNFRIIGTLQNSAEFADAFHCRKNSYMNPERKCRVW
The experiment in a line: Neprilysin activity in NEP-enriched brain membrane fraction of WT mice. The following applies: 40 μg protein, Thiorphan 100 nM. It counts as biochemical, mouse (C57Bl/6j). On the procedure:
To measure NEP activity in brain tissue, whole brains without cerebellum were dissected from adult mice (C57Bl/6j or 5XFAD) and homogenized with a Teflon-glass homogenizer in five volumes (w/v) of ice-cold lysis buffer containing PBS (pH 7.4), 0.25 M sucrose and protease inhibitor cocktail (Complete™, EDTA-free, Roche Diagnostics, Indianapolis, IN). The homogenates were centrifuged at 9000 × g for 15 min at 4 °C. The supernatants were further centrifuged at 20,000 × g at 4 °C for 20 min. The resulting pellets were solubilized in resuspension buffer containing PBS (pH 7.4) and 1% Triton X-100 for 1 h on ice and again centrifuged at 20,000 × g at 4 °C for 20 min. Clear supernatants were used as membrane-extracted fractions. Protein concentrations of Triton-extracted membrane fractions were determined using the Pierce BCA Protein Assay kit (Thermo Fisher Scientific). The standard assay mixture consisted of membrane fraction containing 40 μg total protein diluted in 40 μl of dilution buffer, 10 μl of testing compound (NL1, neurolide or vehicle), and 50 μl of NEP substrate (5-FAM/QXL; Anaspec) in a total volume of 100 μl. The reaction was initiated by adding substrate to the assay mixture. […] Positive and negative controls were set up according to the manufacturer’s protocol (Anaspec). Fluorescence was measured at Ex/Em = 485/535 nm every 20 min for 2 h. The data were expressed as percentage of relative activity of neprilysin.

The target of assay [3] is T3, Aβ1-42 (Homo sapiens, UniProt P05067).
T3 construct: Aβ1-42, at a final concentration of 75 μM (pH 7.4); purchased Bachem AG (Bubendorf, Switzerland) or Schafer-N; host or cells: synthetic peptide
Description: Aβ1-42 aggregation assay (thioflavin T fluorescence). The following applies: 75 μM Aβ1-42 + 10 μM peptide, 37 °C, 8 days, 50 mM Tris pH 7.4, ThT 5 μM, triplicates; slopes compared with Aβ alone. As for the experimental part: Aβ1-42 was dissolved in sterile deionized water to a final concentration of 1 mM. Then, the peptide was subjected to a basic shock by adding 2 M NaOH to pH 12 followed by neutralization with 1 M HCl. Aβ1-42, at a final concentration of 75 μM (pH 7.4) either alone or in combination with NL1 (1 μM), neurolide (10 μM), or NLp7 (10 μM), was loaded in triplicates on 96-well plate. Immediately after mixing the samples, thioflavin T (5 μM, ThT; Sigma-Aldrich), dissolved in the aggregation buffer (50 mM Tris, pH 7.4), was added to wells and plate was incubated at 37 °C for 8 days. The formation of beta-amyloid aggregates was monitored first for 210 min and then every 24 h by recording changes in ThT fluorescence at excitation/emission (Ex/Em) = 440/482 nm.

Assay [4] has as its target T4, recombinant neprilysin (NEP) (Homo sapiens, UniProt P08473).
T4 construct: purchased Anaspec, Fremont, California, USA (SensoLyte 520 Neprilysin Activity Assay Kit)
Description: Neprilysin activity assay with recombinant enzyme (SensoLyte 520). It counts as biochemical. The following applies: peptide 5 μM, equimolar to neurolide; 5-FAM/QXL substrate, 2 h; four to five independent experiments. On the procedure:
NEP activity was measured using the SensoLyte 520 Neprilysin Activity Assay Kit *Fluorimetric* (Anaspec, Fremont, California, USA) following the protocol provided by the manufacturer. Briefly, Aβ1-42 was dissolved in anhydrous DMSO to a stock concentration of 5 mM, followed by dilutions in assay buffer (100 μM, 50 μM, and 5 μM). Both NL1 (3 μM, 1 μM, 0.3 μM, 0.1 μM) and neurolide (100, 10, 5, and 1 μM) were dissolved in assay buffer. Randomly selected two additional NL1-derived peptides, NLp4, and NLp7 (5 μM, Table 1), were included in the analysis. The NEP solution (40 μl) was mixed with 10 μl of either NL1 or peptides and supplemented with 50 μl of NEP substrate (5-FAM/QXL), and the final mixture was incubated in black optical-bottom 96-well plate (Nunc, Rochester, New York, USA). In co-stimulation experiments, Aβ1-42, prepared as described above, was added to the solution in final concentrations either 0.5 μM or 5 μM. The fluorescence signal was recorded at Ex/Em = 485/535 nm every 20 min for 2 h. The data are presented as the relative activity of NEP alone.

Assay [5] deals with Recombinant rat neuroligin-1 (NL1), soluble extracellular domain (rat) (UniProt Q62765). Description: SPR; Biacore 2000; about 2000 RU of NL1 immobilised on a CM4 chip by amine coupling; 25 °C; HBS-P (10 mM HEPES pH 7.4, 150 mM NaCl, 0.005% P20) with 3 mM CaCl2; 20 μl/min; 1:1 Langmuir model; apparent KD = kd/ka. Background: In SPR one partner is held on a chip, and binding of the other changes the refractive index at the surface.

Assay [6] concerns the target Biotinylated amyloid-β peptide 1-40 (Aβ1-40). Description: ELISA; competitive ELISA: NL1 (3.125 nM) coated on the plate; biotinylated Aβ1-40 (400 nM; Aβ40-1 as negative control) premixed 30 min with serially diluted NL1 or NL1-derived peptides; 4 h at room temperature; streptavidin-HRP; IC50 interpreted as KD.

This is an account of results in publication PMC11790763, “A Peptide Motif Covering Splice Site B in Neuroligin-1 Binds to Aβ and Acts as a Neprilysin Inhibitor” (Molecular Neurobiology, 2024).

Where a SMILES comes first, the peptide text is derived from it. Bridges are numbered along the chain shown (N, C = ends). Roman numbers before positions name the chains, in order. Where no end group is shown, it is not given here.

T1 sequence (P05067 672-711): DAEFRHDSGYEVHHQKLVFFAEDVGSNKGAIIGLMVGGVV
T3 sequence (P05067 672-713): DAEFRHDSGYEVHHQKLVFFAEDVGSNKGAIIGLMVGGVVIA
T4 sequence (P08473 whole entry): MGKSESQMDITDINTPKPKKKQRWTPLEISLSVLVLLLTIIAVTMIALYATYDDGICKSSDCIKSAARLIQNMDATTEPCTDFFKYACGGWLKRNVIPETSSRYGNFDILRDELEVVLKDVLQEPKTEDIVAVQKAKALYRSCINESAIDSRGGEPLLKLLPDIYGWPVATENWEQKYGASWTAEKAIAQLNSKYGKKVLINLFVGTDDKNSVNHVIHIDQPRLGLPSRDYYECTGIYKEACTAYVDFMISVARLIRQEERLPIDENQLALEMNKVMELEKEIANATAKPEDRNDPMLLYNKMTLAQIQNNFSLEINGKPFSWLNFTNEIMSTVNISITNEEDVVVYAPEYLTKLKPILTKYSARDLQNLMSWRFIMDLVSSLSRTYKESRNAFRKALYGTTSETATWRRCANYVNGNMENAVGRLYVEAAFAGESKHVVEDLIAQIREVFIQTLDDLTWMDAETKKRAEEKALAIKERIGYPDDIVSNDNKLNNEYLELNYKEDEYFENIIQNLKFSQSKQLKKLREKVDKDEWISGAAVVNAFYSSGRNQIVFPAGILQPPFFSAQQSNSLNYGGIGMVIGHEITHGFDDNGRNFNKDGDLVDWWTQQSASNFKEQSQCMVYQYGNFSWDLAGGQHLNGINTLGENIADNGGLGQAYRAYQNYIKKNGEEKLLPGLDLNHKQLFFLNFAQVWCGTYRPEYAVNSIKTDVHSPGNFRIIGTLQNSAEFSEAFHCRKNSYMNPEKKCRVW
Chain of Recombinant rat neurexin-1β (NX1β) (Q63373 47-391): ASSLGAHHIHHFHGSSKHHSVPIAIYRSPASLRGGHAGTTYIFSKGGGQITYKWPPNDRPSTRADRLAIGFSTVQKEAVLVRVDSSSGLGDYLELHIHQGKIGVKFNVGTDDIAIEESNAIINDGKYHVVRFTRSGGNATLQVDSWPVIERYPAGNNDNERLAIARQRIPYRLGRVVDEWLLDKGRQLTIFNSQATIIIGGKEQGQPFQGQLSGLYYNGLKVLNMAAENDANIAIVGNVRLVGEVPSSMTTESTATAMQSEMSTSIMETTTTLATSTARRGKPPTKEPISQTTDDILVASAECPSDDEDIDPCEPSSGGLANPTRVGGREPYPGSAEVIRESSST

As for “SGGPKPVMYIHG [NLp1, NL1-derived peptide …]”, the “KD (binding affinities to Aβ1-42, as in the table title)” value in assay [1] is recorded as “No binding”.
The same measure, in the same setting: then “ATADLHSNFGS [NLp8, NL1-derived peptide …]”, with “No binding”.
Take `O=C(O)CNC(=O)C(CS)Cc1ccccc1` (stereo not shown) [Thiorphan, reference compound]: the “activity of brain-derived NEP” value in assay [2] is given as “completely blocked”.
For the molecule “AHTKPNRFEA [NLp6, NL1-derived peptide …]”, the “KD (binding affinities to Aβ1-42, as in the table title)” value in assay [1] is on record as “No binding”.
In the case of `CC[C@H](C)[C@H](N)C(=O)N[C@H](C(=O)N[C@H](C(=O)N[C@@H](CC(N)=O)C(=O)N[C@@H](Cc1ccc(O)cc1)C(=O)N[C@@H](CCCNC(=N)N)C(=O)N[C@@H](CC(C)C)C(=O)NCC(=O)NCCCC[C@H](NC(=O)CNC(=O)[C@H](CC(C)C)NC(=O)[C@H](CCCNC(=N)N)NC(=O)[C@H](Cc1ccc(O)cc1)NC(=O)[C@H](CC(N)=O)NC(=O)[C@@H](NC(=O)[C@@H](NC(=O)[C@@H](N)[C@@H](C)CC)[C@@H](C)O)C(C)C)C(=O)NCCCC[C@H](NC(=O)[C@H](CCCCNC(=O)CNC(=O)[C@H](CC(C)C)NC(=O)[C@H](CCCNC(=N)N)NC(=O)[C@H](Cc1ccc(O)cc1)NC(=O)[C@H](CC(N)=O)NC(=O)[C@@H](NC(=O)[C@@H](NC(=O)[C@@H](N)[C@@H](C)CC)[C@@H](C)O)C(C)C)NC(=O)CNC(=O)[C@H](CC(C)C)NC(=O)[C@H](CCCNC(=N)N)NC(=O)[C@H](Cc1ccc(O)cc1)NC(=O)[C@H](CC(N)=O)NC(=O)[C@@H](NC(=O)[C@@H](NC(=O)[C@@H](N)[C@@H](C)CC)[C@@H](C)O)C(C)C)C(N)=O)C(C)C)[C@@H](C)O` [NLp2] (I: H-ITVNYRLGKK-NH2 / II: H-ITVNYRLGK / III: H-ITVNYRLG / IV: H-ITVNYRLG; amide I:9-IV:C, I:10-II:C, II:9-III:C; N-terminus and C-terminus assumed), the “development of ThT fluorescence (Aβ aggregation)” value in assay [3] is listed as “had no effect”.
“AENIVDSDDG [NLp4, NL1-derived peptide …]”: the “KD (binding affinities to Aβ1-42, as in the table title)” value in assay [1] is recorded as “No binding”. Moreover, the “activity of recombinant NEP” value in assay [4] is “had no effect”.
“ASDFDFAVSN [NLp5, NL1-derived peptide …]”: in assay [1], the “KD (binding affinities to Aβ1-42, as in the table title)” value is given as “No binding”.
On to Amyloid-β peptide 1-42 (Aβ1-42), for which the Kd in assay [5] turned out to be 72 nM.
Turning to ASFQPAKYA [NLp3, NL1-derived peptide …], the “KD (binding affinities to Aβ1-42, as in the table title)” value in assay [1] was “No binding”.
In the case of “Recombinant rat neurexin-1β (NX1β) (from UniProt Q63373 47-391) (natural protein)”, the Kd in assay [5] was 6.64 nM.
“SVPVTSAFPTAKQDDA [NLp7, NL1-derived peptide …]”: the “KD (binding affinities to Aβ1-42, as in the table title)” value in assay [1] was “No binding”. In addition, the “development of ThT fluorescence (Aβ aggregation)” value in assay [3] is on record as “had no effect”. Further, the “activity of recombinant NEP” value in assay [4] is on record as “had no effect”.
In turn, ITVNYRLG (also: tetramer: four copies coupled to a lysine backbone) [NLp2, NL1-derived synthetic peptide (tetramer on a lysine backbone)] yielded a Kd in assay [6] of 676 nM.
In turn, SEGNRWSNSTKGLFQRA (also: tetramer: four copies coupled to a lysine backbone) [Neurolide, NL1-derived synthetic peptide (tetramer on a lysine backbone)] came in with a Kd in assay [6] of 35.3 nM.
